Assay [1] concerns the target T1, Beta-secretase 1 (Homo sapiens, UniProt P56817). The assay is described as follows: In Vitro BACE Cell-Based Assay: The cell-based assay measures inhibition or reduction of Aβ40 in conditioned medium of test compound treated cells expressing amyloid precursor protein. Cells stably expressing Amyloid Precursor Protein (APP) were plated at a density of 40K cells/well in 96 well plates (Costar). The cells were cultivated for 24 hours at 37° C. and 5% CO2 in DMEM supplemented with 10% FBS. The test compounds were then added to cells in 10-point dose response concentrations with the starting concentration being either 100 uM or 10 uM. The compounds were diluted from stock solutions in DMSO and the final DMSO concentration of the test compounds on cells was 0.1%. After 24 h of incubation with the test compounds the supernatant conditioned media was collected and the Aβ 40 levels were determined using a sandwich ELISA.

Assay [2] addresses T1, Beta-secretase 1. Put plainly: In Vitro Enzymatic BACE FRET Assay: The assay buffer used in this screen is 0.05 M acetate, pH 4.2, 10% DMSO final, 100 uM genapol (which is a nonionic detergent, below its Critical Micelle Concentration). The Beta Secretase enzyme (0.2 nM) is pre-incubated for one hour with inhibitors, typically in about 1 uL of DMSO according to a serial dilution, are added thereto. This assay is effectively started by the addition of FRET substrate (50 nM) and the combination is incubated for one hour. The FRET assay is terminated with by addition of Tris buffer, which raises the pH to neutrality, and the fluorescence is determined. The FRET substrate is a peptide with commercially available fluorophore and quencher, on opposite sides of the BACE cleavage site. Proteolytic cleavage of the FRET substrate releases quenching of fluorescence (excitation 488 nm and […]).

The target in the next assay is Cathepsin D (Homo sapiens, UniProt P07339). The assay is described as follows: In Vitro Enzymatic Cathepsin D FRET Assay: Recombinant Cat D was expressed in CHO cells. The assay buffer for CathepsinD is 0.05 M citrate pH 3.5, 10% DMSO final, 5 mM CHAPS. The Cat D enzyme (9 nM) is pre-incubated for one hour with inhibitors, typically in about 1 uL of DMSO according to a serial dilution, is added thereto. The assays are effectively started by the addition of different FRET substrates (20 nM for Cat D) and the combination is incubated for one hour. The FRET assay is terminated with by addition of Tris buffer, which raises the pH to neutrality, and the fluorescence is determined. The FRET substrate is a peptide with commercially available fluorophore and quencher, on opposite sides of the BACE cleavage site. […] Proteolytic cleavage of the FRET substrate releases quenching of fluorescence (Cat D excitation 500 nm and emission 580 nm). In kind it is cell-based.
Chain of Cathepsin D (P07339 65-162 limits assumed): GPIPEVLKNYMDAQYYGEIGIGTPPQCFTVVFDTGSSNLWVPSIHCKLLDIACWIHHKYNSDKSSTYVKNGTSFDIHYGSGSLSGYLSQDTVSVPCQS
Chain of Cathepsin D (P07339 169-412 limits assumed): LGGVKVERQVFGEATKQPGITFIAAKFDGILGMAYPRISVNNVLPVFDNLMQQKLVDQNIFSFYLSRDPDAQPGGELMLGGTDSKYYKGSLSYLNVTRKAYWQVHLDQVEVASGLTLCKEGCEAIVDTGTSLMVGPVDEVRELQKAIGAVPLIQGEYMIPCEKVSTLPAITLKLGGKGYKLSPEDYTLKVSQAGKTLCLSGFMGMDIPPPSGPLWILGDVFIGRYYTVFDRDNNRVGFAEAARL

Results on three compounds are retold here after ChEMBL document CHEMBL3886610, “Perfluorinated 5,6-dihydro-4H-1,3-oxazin-2-amine compounds as beta-secretase inhibitors and methods of use” (2016).

T1 sequence (P56817 whole entry): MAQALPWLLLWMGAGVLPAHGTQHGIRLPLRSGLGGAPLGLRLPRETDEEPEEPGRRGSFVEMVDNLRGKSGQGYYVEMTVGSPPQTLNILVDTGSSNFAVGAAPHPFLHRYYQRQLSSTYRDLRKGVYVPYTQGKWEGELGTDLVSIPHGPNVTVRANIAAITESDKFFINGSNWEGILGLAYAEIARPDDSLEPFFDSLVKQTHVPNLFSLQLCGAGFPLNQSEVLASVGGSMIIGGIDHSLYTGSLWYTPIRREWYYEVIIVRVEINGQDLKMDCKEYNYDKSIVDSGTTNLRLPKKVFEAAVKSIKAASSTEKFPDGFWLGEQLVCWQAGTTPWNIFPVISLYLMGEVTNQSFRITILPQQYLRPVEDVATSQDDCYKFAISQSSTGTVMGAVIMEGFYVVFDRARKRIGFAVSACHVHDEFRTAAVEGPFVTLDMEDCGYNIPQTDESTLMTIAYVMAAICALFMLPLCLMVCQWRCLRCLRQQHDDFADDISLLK

Compound `COC(=O)c1ccnc(Oc2ccc(F)c([C@]3(CF)C[C@@H](C(F)(F)F)OC(N)=N3)c2)c1` displayed an IC50 at Beta-secretase 1 [1] of 3.56 µM.
On to `Cc1cc(OCC2CC2)cnc1C(=O)Nc1ccc(F)c([C@]2(CF)C[C@@H](C(F)(F)F)OC(N)=N2)c1`, for which the IC50 was 0.12 µM at Beta-secretase 1 [2], 0.487 µM against Beta-secretase 1 [1] and above 400 µM on Cathepsin D (cho).
With `C#CCOc1ccc(C(=O)Nc2cc(F)c(F)c([C@]3(C)C[C@@H](C(F)(F)F)OC(N)=N3)c2)nc1`, the results for the IC50 on Beta-secretase 1 [2], against Beta-secretase 1 [1] and at Cathepsin D were 0.01 µM, 0.012 µM and 1190 µM, respectively.
